# Source: patent publication US10745365B2, “Luminogenic and fluorogenic compounds and methods to detect molecules or conditions” (Promega Corporation, priority 2005, dated 2020)
# Where two headings read alike, the source gives them in different places.
# Key:
# [1] = target: T1, QuantiLum Luciferase (firefly luciferase) (Photinus pyralis, UniProt P08659); assay: ATP titration of luciferase reactions with luciferin and fluoroluciferins; format: biochemical
# T1 construct: purchased Promega Corporation El 70
# Protocol: AU compounds except 5’-fluoroluciferin and DTT were purchased from Sigma Chemical. To some of this reagent 5 mM ATP (Amersham/Invitrogen) was added, then serially diluted by half-logs to 0.05 mM. Reactions were initiated by adding equal volumes (0.1 ml) of reagent and DMEM medium (Gibco/Invitrogen) containing 0.1% Prionex® (Pentapharm) and 1.4×10-5 mg/ml QuantiLum™ Luciferase (Promega Corporation).
# For ATP titrations for 7′-fluoroluciferin, reagent was created containing 200 mM HEPES, 200 mM PIPES, 1 mM CDTA, 0.5% Tergitol NP-9, 0.03% Benzyl dodecyldimethyl ammonium bromide, 30 mM thiourea, 10 mM magnesium sulfate, and 0.15 mM 7′-fluoroluciferin. This solution was separated into 3 parts and pH of the reagents were 7.4, 7.2 and 6.7. To some of this reagent, 10 mM ATP (Amersham/Invitrogen) was added. The ATP was serially diluted by quarter-logs from 10 mM to 0.32 mM.
# Reactions were initiated by adding equal volumes (0.03 ml) of reagent and DMEM medium (Gibco/Invitrogen) containing 0.1% Prionex® (Pentapharm) and 1.4×10-5 mg/ml QuantiLum™ Luciferase (Promega Corporation).
# Luminescence was measured for 0.5 seconds per well using Berthold Orion luminometer.
# [2] = target: T1, QuantiLum Luciferase (firefly luciferase); assay: Luminescence spectra of fluoroluciferins; format: biochemical; details: pH 7.4
# Protocol: All compounds except fluoroluciferin and ATP were purchased from Sigma Chemical. ATP was purchased from Amersham/Invitrogen.
# Spectra were measured using 0.5s integration with 1 nm increments on a Spex Fluorolog.
# [3] = target: T1, QuantiLum Luciferase (firefly luciferase); assay: pH dependence of firefly luciferase signal with luciferin or 5′-fluoroluciferin; format: biochemical
# Protocol: Aliquots of these solutions were then placed into tubes and buffers were added to 80 mM.
# Luminescent reactions were initiated by combining 100 μl of the luciferase-containing solution and 100 μl of the luciferase detection reagents. Luminescence was integrated over 1 second per sample using the Veritas plate luminometer (Turner Bio Systems). N=3 for each result.
# porcine esterase = assay: Two-step luminescent carboxylesterase assay with D-luciferin esters; format: biochemical; details: two step luminescent assay format
# equine GST = assay: Two-step luminescent GST assay with equine GST; format: biochemical; details: for Raw Data light reading: Equine GST, 2 mM glutathione
# Protocol: (§1) The derivative was tested in a two step format. For the first step, the derivative was added to a mixture with one of three GSTs with or without glutathione. At different times after the reaction was initiated, a portion was removed and mixed with a luciferase reaction mixture.
# (§2) S. japonica GST: 1 vial with 3 mg GST (Part G5663, Sigma Chemical Company) was dissolved in 500 μl of 10 mM BisTris, pH 6.6.
# (§3) The reactions (Table 1) were assembled by first adding the water and 1 M BisTris solutions in individual 0.5 ml microfuge tubes, then adding the other components except for the GST #3 solution. Finally, the GST #3 (FIG. 12) solution was added to the reactions, the resulting solution was mixed, and the time of addition noted.
# (§4) After assembly, the enzyme stock solutions were diluted 1:10 into 10 mM HEPES, pH 7.5 and the following additions were made to the reactions.
# (§5) The reactions were allowed to proceed for 30 minutes at room temperature and then 100 μl of P450 Glo reagent was added to each reaction and the light produced by the subsequent solution was measured on a Veritas luminometer.
# [4] = Non-enzymatic conversion of luciferin derivative by glutathione (no GST) and buffer controls; format: biochemical; details: for Light Output: Table 4 reaction 1: BisTris pH 6.5, no glutathione, time post mixing in column head; for Light Reading: no enzyme, 45 min; for Glutathione Signal: glutathione alone minus buffer
# Protocol: Buffer stock solutions (1 M) of BisTris at pH 6.5, HEPES, pH 7.0, 7.5 and 8.0 and Tricine pH 8.5 were prepared by dissolving solid reagent obtained from Sigma Chemical Corporation and adjusting the pH to the desired value. […]
# S. japonica GST = target: T2, S. japonica GST (Schistosoma japonicum, UniProt P08515); format: biochemical; details: for Light Reading: 45 min; for Raw Data light reading: S. japonica GST, 2 mM glutathione
# T2 construct: purchased Sigma Chemical Company G5663
# Protocol: as §1, §2, §3
# Buffer stock solutions (1 M) of BisTris at pH 6.5, HEPES, pH 7.0, 7.5 and 8.0 and Tricine pH 8.5 were prepared by dissolving solid reagent obtained from Sigma Chemical Corporation and adjusting the pH to the desired value.
# The GST #3 addition was performed last and the solutions were mixed immediately after addition of GST #3. […] After mixing, the light produced by the solution was measured using a Turner TD 20/20 luminometer.
# The stock of S. japonica GST used in Example IA was diluted to 1 mg/ml with 10 mM BisTris pH 6.5.
# The reactions were initiated by addition of GST #3 and mixing. […]
# CYP2D6 = target: T3, CYP2D6 (Homo sapiens, UniProt P10635); assay: CYP2D6 inhibition assay with luciferin-6-methylether ethylene glycol ester; format: biochemical; details: substrate luciferin-6-methylether ethylene glycol ester
# T3 construct: purchased Discovery Labware (BD/Gentest); host or cells: insect cell expression system (membrane fractions)
# GST A1-1 = GST A1-1 (Homo sapiens, UniProt P08263); details: for Raw Data light reading: GST A1-1, 2 mM glutathione
# Protocol: Enzyme and glutathione stock solutions are described in Example IA.
# as §4
# GST A1-1 (Sigma) is an enzyme found in a few body tissues, including kidney, intestine, lung and liver. GST M1-1 (Sigma) is a type b allelic variant, which corresponds to GST psi purified from human liver.
# as §5
# GST M1-1 = target: T4, GST M1-1 (Homo sapiens, UniProt P09488, K173N); assay: Luminescent GST assay with GST M1-1; format: biochemical; details: for Raw Data light reading: GST M1-1, 2 mM glutathione
# T4 construct: purchased Sigma
# T4 sequence (P09488 1-218 K173N): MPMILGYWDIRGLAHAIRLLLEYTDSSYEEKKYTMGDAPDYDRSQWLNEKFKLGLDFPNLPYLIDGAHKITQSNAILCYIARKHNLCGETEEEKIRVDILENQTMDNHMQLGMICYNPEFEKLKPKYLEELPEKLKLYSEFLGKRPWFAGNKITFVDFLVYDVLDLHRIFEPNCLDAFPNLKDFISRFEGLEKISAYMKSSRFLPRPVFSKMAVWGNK
# T2 sequence (P08515 whole entry): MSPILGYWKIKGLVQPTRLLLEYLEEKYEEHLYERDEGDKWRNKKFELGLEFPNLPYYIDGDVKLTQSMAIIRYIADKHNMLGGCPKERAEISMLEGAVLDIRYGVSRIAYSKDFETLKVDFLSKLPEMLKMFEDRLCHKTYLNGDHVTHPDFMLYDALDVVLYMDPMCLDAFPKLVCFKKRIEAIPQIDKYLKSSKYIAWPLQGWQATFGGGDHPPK
# T3 sequence (P10635 whole entry): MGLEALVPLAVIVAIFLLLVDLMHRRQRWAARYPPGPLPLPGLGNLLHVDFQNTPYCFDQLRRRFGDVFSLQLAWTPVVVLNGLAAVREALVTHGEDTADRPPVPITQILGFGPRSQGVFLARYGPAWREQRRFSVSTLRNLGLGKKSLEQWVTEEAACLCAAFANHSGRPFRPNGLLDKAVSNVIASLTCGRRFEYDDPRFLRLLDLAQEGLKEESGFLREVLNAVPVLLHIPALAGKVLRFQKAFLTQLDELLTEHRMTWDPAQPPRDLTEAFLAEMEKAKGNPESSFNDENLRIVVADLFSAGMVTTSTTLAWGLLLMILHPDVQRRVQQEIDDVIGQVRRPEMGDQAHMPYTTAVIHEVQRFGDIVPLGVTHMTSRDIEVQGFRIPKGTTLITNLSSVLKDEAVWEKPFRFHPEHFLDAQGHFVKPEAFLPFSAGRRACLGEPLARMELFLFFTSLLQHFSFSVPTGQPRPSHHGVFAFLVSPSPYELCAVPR
# T1 sequence (P08659 whole entry): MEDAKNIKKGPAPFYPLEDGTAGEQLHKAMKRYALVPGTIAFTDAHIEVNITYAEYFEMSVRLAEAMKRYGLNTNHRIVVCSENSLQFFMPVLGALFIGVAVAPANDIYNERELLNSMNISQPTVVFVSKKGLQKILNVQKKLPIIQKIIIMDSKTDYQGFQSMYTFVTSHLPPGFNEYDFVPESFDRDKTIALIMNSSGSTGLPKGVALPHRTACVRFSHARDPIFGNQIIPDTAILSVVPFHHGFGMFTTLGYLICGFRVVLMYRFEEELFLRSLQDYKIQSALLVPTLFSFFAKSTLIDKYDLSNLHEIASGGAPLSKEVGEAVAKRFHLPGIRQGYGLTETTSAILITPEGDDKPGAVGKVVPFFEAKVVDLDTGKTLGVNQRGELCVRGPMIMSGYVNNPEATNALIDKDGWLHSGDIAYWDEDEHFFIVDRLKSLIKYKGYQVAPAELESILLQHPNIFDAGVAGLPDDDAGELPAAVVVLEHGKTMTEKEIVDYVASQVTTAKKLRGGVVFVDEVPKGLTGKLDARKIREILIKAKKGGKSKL
# GST A1-1, sequence (P08263 whole entry): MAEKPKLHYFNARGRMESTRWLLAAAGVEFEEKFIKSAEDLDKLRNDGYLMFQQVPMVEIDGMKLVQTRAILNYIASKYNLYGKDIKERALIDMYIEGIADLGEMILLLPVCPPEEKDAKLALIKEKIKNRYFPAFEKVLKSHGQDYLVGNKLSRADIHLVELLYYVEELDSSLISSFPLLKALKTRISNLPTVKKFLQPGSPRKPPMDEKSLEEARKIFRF
compound,measurement,setting,value
O=C(O)[C@H]1CSC(c2nc3cc(F)c(O)cc3s2)=N1 [5′-fluoroluciferin],ATP requirement of luciferase reaction,[1],saturated with ATP at a higher concentration than the reaction using luciferin
same,blue shift of luminescence λmax from regular luciferin,[2],approximately 25 nm
same,blue shift of luminescence λmax from regular luciferin,[2]; listed as 5′ fluoroluciferin,about 10 nm
same,Relative Luminescence (% of 8.3 Luciferin),"[3]; pH 6.900, MOPS",19%
same,Relative Luminescence (% of 8.3 Luciferin),"[3]; pH 7.133, MOPS",22%
same,Relative Luminescence (% of 8.3 Luciferin),"[3]; pH 7.296, MOPS",23%
same,Relative Luminescence (% of 8.3 Luciferin),"[3]; pH 7.303, HEPES",22%
same,Relative Luminescence (% of 8.3 Luciferin),"[3]; pH 7.499, MOPS",23%
same,Relative Luminescence (% of 8.3 Luciferin),"[3]; pH 7.521, HEPES",25%
same,Relative Luminescence (% of 8.3 Luciferin),"[3]; pH 7.673, Tricine",24%
same,Relative Luminescence (% of 8.3 Luciferin),"[3]; pH 7.720, HEPES",27%
same,Relative Luminescence (% of 8.3 Luciferin),"[3]; pH 7.883, Tricine",24%
same,Relative Luminescence (% of 8.3 Luciferin),"[3]; pH 7.892, HEPES",26%
same,Relative Luminescence (% of 8.3 Luciferin),"[3]; pH 8.100, Tricine",24%
same,Relative Luminescence (% of 8.3 Luciferin),"[3]; pH 8.327, Tricine",22%
CCOC(=O)[C@H]1CSC(c2nc3ccc(O)cc3s2)=N1 [D-luciferin ethyl ester],carboxylesterase substrate,porcine esterase,effective in this format
COC(=O)[C@H]1CSC(c2nc3ccc(O)cc3s2)=N1 [D-luciferin methyl ester],carboxylesterase substrate,porcine esterase,effective in this format
O=C(OCc1cccnc1)[C@H]1CSC(c2nc3ccc(O)cc3s2)=N1 [D-luciferin picolinyl ester],carboxylesterase substrate,porcine esterase,effective in this format
"O=C(O)[C@H]1CSC(c2ccc3cc(Oc4ccc(C(F)(F)F)cc4[N+](=O)[O-])ccc3n2)=N1 [GST #3, 6-(2-nitro-4-trifluoromethyl-phenoxy)quinolinyl-luciferin]",GST preference,equine GST; light generating reaction,better substrate for equine GST in a light generating reaction than GST M1-1 and GST A1-1
same,Light Output,[4]; 20 minutes after mixing,0.976
same,Light Output,[4]; 40 minutes after mixing,1.099
same,Light Output,[4]; at time of mixing,1.01
same,Light Reading,"[4]; Table 6 reaction 1: pH 7.5, 50 μl 10 mM GSH",26.3
same,Light Reading,"[4]; reaction 3: pH 7.5, 30 μl 10 mM GSH",19.21
same,Light Reading,"[4]; reaction 5: pH 7.5, 10 μl 10 mM GSH",10.73
same,Light Reading,"[4]; reaction 7: pH 8.0, 50 μl 10 mM GSH",65.98
same,Light Reading,"[4]; reaction 9: pH 8.0, 30 μl 10 mM GSH",48.41
same,Light Reading,"[4]; reaction 11: pH 8.0, 10 μl 10 mM GSH",22.52
same,Light Reading,"[4]; reaction 13: pH 8.5, 50 μl 10 mM GSH",295.2
same,Light Reading,"[4]; reaction 15: pH 8.5, 30 μl 10 mM GSH",199.4
same,Light Reading,"[4]; reaction 17: pH 8.5, 10 μl 10 mM GSH",97.89
same,Light Reading,"S. japonica GST; reaction 2: pH 7.5, 50 μl 10 mM GSH, 10 μl S. japonica GST",61.58
same,Light Reading,"S. japonica GST; reaction 4: pH 7.5, 30 μl 10 mM GSH, enzyme",55.18
same,Light Reading,"S. japonica GST; reaction 6: pH 7.5, 10 μl 10 mM GSH, enzyme",52.23
same,Light Reading,"S. japonica GST; reaction 8: pH 8.0, 50 μl 10 mM GSH, enzyme",152.3
same,Light Reading,"S. japonica GST; reaction 10: pH 8.0, 30 μl 10 mM GSH, enzyme",135.6
same,Light Reading,"S. japonica GST; reaction 12: pH 8.0, 10 μl 10 mM GSH, enzyme",97.47
same,Light Reading,"S. japonica GST; reaction 14: pH 8.5, 50 μl 10 mM GSH, enzyme",532.4
same,Light Reading,"S. japonica GST; reaction 16: pH 8.5, 30 μl 10 mM GSH, enzyme",416.7
same,Light Reading,"S. japonica GST; reaction 18: pH 8.5, 10 μl 10 mM GSH, enzyme",267.3
CC(NC(C)(C)C)C(=O)c1cccc(Cl)c1 (centres unmarked) [bupropion],IC50,CYP2D6,33 µM
Clc1ccccc1C(c1ccccc1)(c1ccccc1)n1ccnc1 [clotrimazole],IC50,CYP2D6,22.6 µM
CC(C)N(CCC(C(N)=O)(c1ccccc1)c1ccccn1)C(C)C (centres unmarked) [disopyramide],IC50,CYP2D6,220 µM
Acetyl Luciferin,Raw Data light reading,GST A1-1; 2 mM AL,"42,725"
same,Raw Data light reading,GST A1-1; 20 mM AL,"365,770"
same,Net Enzyme Signal,GST A1-1; Net 2 mM AL,"7,519"
same,Net Enzyme Signal,GST A1-1; Net 20 mM AL,"34,854"
same,Raw Data light reading,equine GST; 2 mM AL,"39,036"
same,Raw Data light reading,equine GST; 20 mM AL,"361,356"
same,Net Enzyme Signal,equine GST; Net 2 mM AL,"3,830"
same,Net Enzyme Signal,equine GST; Net 20 mM AL,"30,440"
same,Glutathione Signal,[4]; 2 mM AL,"14,557"
same,Glutathione Signal,[4]; 20 mM AL,"147,064"
same,Raw Data light reading,"[4]; Buffer Alone, 2 mM AL, pH 7.5, 30 min","20,649"
same,Raw Data light reading,"[4]; Buffer Alone, 20 mM AL, pH 7.5, 30 min","183,852"
same,Raw Data light reading,"[4]; Glutathione Alone (2 mM), 2 mM AL","35,206"
same,Raw Data light reading,"[4]; Glutathione Alone (2 mM), 20 mM AL","330,916"
same,Net Enzyme Signal,S. japonica GST; Net 2 mM AL,"91,082"
same,Net Enzyme Signal,S. japonica GST; Net 20 mM AL,"902,203"
same,Raw Data light reading,S. japonica GST; 2 mM AL,"126,288"
same,Raw Data light reading,S. japonica GST; 20 mM AL,"1,233,119"
same,Raw Data light reading,GST M1-1; 2 mM AL,"42,867"
same,Raw Data light reading,GST M1-1; 20 mM AL,"419,400"
same,Net Enzyme Signal,GST M1-1; Net 2 mM AL,"7,661"
same,Net Enzyme Signal,GST M1-1; Net 20 mM AL,"88,484"
